Test results: ChEMBL document CHEMBL3886877, “Spiro ring compound as hepatitis C virus (HCV) inhibitor and uses thereof” (2016)

Test: Luciferase Assay: The Huh-7 cells transfected with HCV replicons system were seeded into 96-well plates (8,000 cells in 125 μL/well) respectively; each test compound was diluted to desired concentration using 5-fold serial dilutions protocol, 10 doses in duplicate, and added to wells with POD™ 810 Plate Assembler. […] In this paper, experiments were repeated twice and set the holes without compounds as negative control.

Row | Structure (SMILES) | EC50 [nM] | EC50 (Huh-7) [nM]
1 | COC(=O)N[C@H](C(=O)N1CCC[C@H]1c1ncc(-c2ccc(-c3ccc(-c4ccc5nc([C@@H]6CCCN6C(=O)[C@@H](NC(=O)OC)C(C)C)[nH]c(=O)c5c4)c4c3CC3(CCCC3)C4)cc2)[nH]1)C(C)C | 0.087 | 
2 | COC(=O)N[C@H](C(=O)N1C[C@@H](C)C[C@H]1[n+]1c[nH]c(-c2ccc(-c3ccc(-c4ccc5nc([C@@H]6C[C@H](C)CN6C(=O)[C@@H](NC(=O)OC)C(C)C)[nH]c(=O)c5c4)c4c3CC3(CCCC3)C4)cc2)c1)C(C)C |  | 0.006
